Results published in patent US20210330596A1, “PHARMACEUTICAL COMPOSITION FOR USE IN A COMBINATION WITH CA[…] ENHANCE BENEFITS OF CA[…] SUPPORT HUMAN ENDOCANNABINOID SYSTEM” (priority 2020, published 2021).
“And” between values parts separate entries of the source, which are not always exact repeats. Identical values can stand only once.

Test system: mice's endocannabinoid system
Assay: maze and food trial: time the mice need to solve the maze after feed
Assay type: in vivo
Settings: for time to solve the maze, Time 0, individual mouse / time to solve the maze, Time 0, Average: 10 minutes after feed; for time to solve the maze, Time 0, individual mouse / time to solve the maze, Time 1, individual mouse: mouse # 1-10 in table order; for time to solve the maze, Time 0, Average / time to solve the maze, Time 1, Average: ten mice; for time to solve the maze, Time 1, individual mouse / time to solve the maze, Time 1, Average: 120 minutes after feed
Method: In an embodiment, the pharmaceutical composition of the present invention relates to an essential oil rich composition that supports the endocannabinoid system. Following tables 1-5 describe trials conducted with ten mice (Wistar) utilizing a maze and food to determine how long on average the mice solves the maze at 10 and 120 minutes after starting the experiment.
Table 1 is the base when the mice learned the experiment. It took 7 days of training (4 repetitions per day) to get the base time for each mice.
The Average Time results were statistically slower to the Control (Table 3) results with a standard deviation of less than 3%. The slowness with which the mice solved the maze leads us to believe either the embodiment has some entourage effect (as described by Ben-Shabat et. Al. in the European Journal of Pharmacology, 1998) or has supported the endocannabinoid system in mice because the mice took at least as long to solve the maze as before they developed tolerance to THC. The Entourage Effect was also described by Russo et. al. in his paper “Taming THC: potential cannabis synergy and phytocannabinoid-terpenoid entourage effects”, published in the British Journal of Pharmacology, 2011 August; 163(7): 1344-1364.
In this Table we see the results of THC 24 hours after the embodiment was administered. Mice on average take 1-5 hours to digest food. It is estimated that mice will have completely metabolized the embodiment after 24 hours. After THC was administered but now without the embodiment, mice are experiencing the same heightened effects of THC as in FIG. 4, even after the embodiment was not present in their body after a 24 hour period.

[1] = Day 1 CONTROL, 0.3 mgTHC/kg, before tolerance
[2] = Day 14 BASELINE 2 (acquired tolerance), 0.3 mgTHC/kg/day
[3] = TRIAL 2, 0.3 mgTHC + 0.0 mg embodiment/kg, THC 24 hours after the embodiment was administered

With `CCCCCc1cc(O)c2c(c1)OC(C)(C)[C@@H]1CCC(C)=C[C@@H]21` [THC, Tetrahydrocannabinol] the “time to solve the maze, Time 0, individual mouse” value (“time … Time 0, individual mouse” for short) [1] was 16 ± 3 minutes and 17 ± 3 minutes (2×) and 23 ± 3 minutes and 20 ± 3 minutes and 25 ± 3 minutes and 30 ± 3 minutes and 26 ± 3 minutes and 19 ± 3 minutes and 24 ± 3 minutes, the “time to solve the maze, Time 0, Average” value [1] was 22 ± 3 min and the “time to solve the maze, Time 1, individual mouse” value (from here on “time … Time 1, individual mouse”) [1] was 14 ± 3 minutes (2×) and 10 ± 3 minutes (2×) and 19 ± 3 minutes (2×) and 22 ± 3 minutes (2×) and 21 ± 3 minutes and 16 ± 3 minutes. For the same compound, the “time to solve the maze, Time 1, Average” value [1] was 17 ± 3 min, the “time … Time 0, individual mouse” value [2] was 16 ± 3 minutes (2×) and 19 ± 3 minutes (2×) and 18 ± 3 minutes (2×) and 14 ± 3 minutes and 13 ± 3 minutes and 12 ± 3 minutes and 11 ± 3 minutes and the “time to solve the maze, Time 0, Average” value [2] was 14 ± 3 min. The “time … Time 1, individual mouse” value [2] was 14 ± 3 minutes and 15 ± 3 minutes (2×) and 12 ± 3 minutes and 10 ± 3 minutes (4×) and 11 ± 3 minutes (2×), the “time to solve the maze, Time 1, Average” value [2] was 12 ± 3 min and the “time … Time 0, individual mouse” value [3] was 27 ± 3 minutes (2×) and 20 ± 3 minutes and 22 ± 3 minutes (2×) and 17 ± 3 minutes and 16 ± 3 minutes and 21 ± 3 minutes and 18 ± 3 minutes and 29 ± 3 minutes. The “time to solve the maze, Time 0, Average” value [3] was 22 ± 3 min, the “time … Time 1, individual mouse” value [3] was 22 ± 3 minutes and 19 ± 3 minutes (2×) and 16 ± 3 minutes and 23 ± 3 minutes and 15 ± 3 minutes and 12 ± 3 minutes and 9 ± 3 minutes and 17 ± 3 minutes and 20 ± 3 minutes and the “time to solve the maze, Time 1, Average” value [3] was 17 ± 3 min. The “maze solved faster on average than the Control Time, T0” value (after 15 days of daily THC dose of 0.3 mgTHC/kg, Time 0 (10 minutes after feed), tolerance to THC) was 40% and the “maze solved faster on average than the Control Time, T1” value (after 15 days of daily THC dose of 0.3 mgTHC/kg, Time 1 (120 minutes after feed), tolerance to THC) was “up to 60%”.
